Data published in patent US20100099561A1, “HETEROBICYCLIC ALKYLTHIO-BRIDGED ISOXAZOLINES” (E.I. DU PONT DE NEMOURS AND COMPANY, priority 2008, published 2010).

Assays:
Assay type in all cases: in vivo
[1] = tested on: barnyardgrass (Echinochloa crus-galli); assay: Test A preemergence, barnyardgrass; settings: 0 to 100 scale (0 no effect, 100 complete control)
Method in brief: (§1)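 Pre: directed soil spray after sowing in loam/sand. Post: seedlings at 1–2 leaf stage, 2–10 cm. Vehicle: non-phytotoxic solvent mix + surfactant. Greenhouse ~10 d; visual injury 0–100 vs untreated controls.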

[2] = tested on: large crabgrass (Digitaria sanguinalis); assay: Test A preemergence, large crabgrass; settings: 0 to 100 scale (0 no effect, 100 complete control)
Method in brief: as §1

[3] = tested on: giant foxtail (Setaria faberi); assay: Test A preemergence, giant foxtail; settings: 0 to 100 scale (0 no effect, 100 complete control)
Method in brief: as §1

[4] = tested on: morningglory (Ipomoea spp.); assay: Test A preemergence, morningglory; settings: 0 to 100 scale (0 no effect, 100 complete control)
Method in brief: as §1

[5] = tested on: pigweed (Amaranthus retroflexus); assay: Test A preemergence, pigweed; settings: 0 to 100 scale (0 no effect, 100 complete control)
Method in brief: as §1

[6] = tested on: velvetleaf (Abutilon theophrasti); assay: Test A preemergence, velvetleaf; settings: 0 to 100 scale (0 no effect, 100 complete control)
Method in brief: as §1

[7] = tested on: wheat (Triticum aestivum); assay: Test A preemergence, wheat; settings: 0 to 100 scale (0 no effect, 100 complete control)
Method in brief: as §1

[8] = tested on: corn (Zea mays); assay: Test A preemergence, corn; settings: 0 to 100 scale (0 no effect, 100 complete control)
Method in brief: as §1

[9] = tested on: barnyardgrass (Echinochloa crus-galli); assay: Test A postemergence, barnyardgrass; settings: 0 to 100 scale (0 no effect, 100 complete control)
Method in brief: as §1

[10] = tested on: large crabgrass (Digitaria sanguinalis); assay: Test A postemergence, large crabgrass; settings: 0 to 100 scale (0 no effect, 100 complete control)
Method in brief: as §1

[11] = tested on: giant foxtail (Setaria faberi); assay: Test A postemergence, giant foxtail; settings: 0 to 100 scale (0 no effect, 100 complete control)
Method in brief: as §1

[12] = tested on: morningglory (Ipomoea spp.); assay: Test A postemergence, morningglory; settings: 0 to 100 scale (0 no effect, 100 complete control)
Method in brief: as §1

[13] = tested on: pigweed (Amaranthus retroflexus); assay: Test A postemergence, pigweed; settings: 0 to 100 scale (0 no effect, 100 complete control)
Method in brief: as §1

[14] = tested on: velvetleaf (Abutilon theophrasti); assay: Test A postemergence, velvetleaf; settings: 0 to 100 scale (0 no effect, 100 complete control)
Method in brief: as §1

[15] = tested on: wheat (Triticum aestivum); assay: Test A postemergence, wheat; settings: 0 to 100 scale (0 no effect, 100 complete control)
Method in brief: as §1

[16] = tested on: corn (Zea mays); assay: Test A postemergence, corn; settings: 0 to 100 scale (0 no effect, 100 complete control)
Method in brief: as §1

[17] = tested on: rice (Oryza sativa); assay: Test B flooded paddy test, rice; settings: Flood, scale 0 to 100
Method in brief: (§2)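 Paddy-water application to 2-leaf plants in pots held under 3 cm of flooding; response is a 0–100 visual control rating against controls after 13 to 15 days, and a dash marks a missing result.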

[18] = tested on: umbrella sedge (Cyperus difformis); assay: Test B flooded paddy test, umbrella sedge; settings: Flood, scale 0 to 100
Method in brief: as §2

[19] = tested on: ducksalad (Heteranthera limosa); assay: Test B flooded paddy test, ducksalad; settings: Flood, scale 0 to 100
Method in brief: as §2

[20] = tested on: barnyardgrass (Echinochloa crus-galli); assay: Test B flooded paddy test, barnyardgrass; settings: Flood
Method in brief: as §2

[21] = 250 g ai/ha, scale 0 to 100 (0 no effect, 100 complete control)

## CC1(C)CC([S+]([O-])Cc2c(C(F)(F)C(F)(F)F)nc3n(c2=O)CCCC3)=NO1 (stereo not drawn) [Compound 19]
[1]; 125 g ai/ha
  Plant response rating, Barnyardgrass: 0
[1]; 500 g ai/ha
  Plant response rating, Barnyardgrass: 80
[2]; 125 g ai/ha
  Plant response rating, Crabgrass, Large: 0
[2]; 500 g ai/ha
  Plant response rating, Crabgrass, Large: 80
[3]; 125 g ai/ha
  Plant response rating, Foxtail, Giant: 0
[3]; 500 g ai/ha
  Plant response rating, Foxtail, Giant: 80
[4]; 125 g ai/ha
  Plant response rating, Morningglory: 0
[4]; 500 g ai/ha
  Plant response rating, Morningglory: 60
[5]; 125 g ai/ha
  Plant response rating, Pigweed: 0
[5]; 500 g ai/ha
  Plant response rating, Pigweed: 20
[6]; 125 g ai/ha
  Plant response rating, Velvetleaf: 0
[6]; 500 g ai/ha
  Plant response rating, Velvetleaf: 0
[7]; 125 g ai/ha
  Plant response rating, Wheat: 0
[7]; 500 g ai/ha
  Plant response rating, Wheat: 20
[8]; 500 g ai/ha
  Plant response rating, Corn: 20
[9]; 125 g ai/ha
  Plant response rating, Barnyardgrass: 10
[9]; 500 g ai/ha
  Plant response rating, Barnyardgrass: 70
[10]; 125 g ai/ha
  Plant response rating, Crabgrass, Large: 0
[10]; 500 g ai/ha
  Plant response rating, Crabgrass, Large: 30
[11]; 125 g ai/ha
  Plant response rating, Foxtail, Giant: 0
[11]; 500 g ai/ha
  Plant response rating, Foxtail, Giant: 50
[12]; 125 g ai/ha
  Plant response rating, Morningglory: 0
[12]; 500 g ai/ha
  Plant response rating, Morningglory: 20
[13]; 125 g ai/ha
  Plant response rating, Pigweed: 0
[13]; 500 g ai/ha
  Plant response rating, Pigweed: 10
[14]; 125 g ai/ha
  Plant response rating, Velvetleaf: 0
[14]; 500 g ai/ha
  Plant response rating, Velvetleaf: 20
[15]; 125 g ai/ha
  Plant response rating, Wheat: 0
[15]; 500 g ai/ha
  Plant response rating, Wheat: 20
[16]; 125 g ai/ha
  Plant response rating, Corn: 0
[16]; 500 g ai/ha
  Plant response rating, Corn: 40
[17]; 31 g ai/ha
  Plant response rating, Rice: 0
[17]; 62 g ai/ha
  Plant response rating, Rice: 0
[17]; 125 g ai/ha
  Plant response rating, Rice: 0
[17]; 250 g ai/ha
  Plant response rating, Rice: 0
[18]; 31 g ai/ha
  Plant response rating, Sedge, Umbrella: 0
[18]; 62 g ai/ha
  Plant response rating, Sedge, Umbrella: 0
[18]; 125 g ai/ha
  Plant response rating, Sedge, Umbrella: 0
[18]; 250 g ai/ha
  Plant response rating, Sedge, Umbrella: 0
[19]; 31 g ai/ha
  Plant response rating, Ducksalad: 0
[19]; 62 g ai/ha
  Plant response rating, Ducksalad: 0
[19]; 125 g ai/ha
  Plant response rating, Ducksalad: 0
[19]; 250 g ai/ha
  Plant response rating, Ducksalad: 0
[20]; 31 g ai/ha, scale 0 to 100
  Plant response rating, Barnyardgrass: 0
[20]; 62 g ai/ha, scale 0 to 100
  Plant response rating, Barnyardgrass: 0
[20]; 125 g ai/ha, scale 0 to 100
  Plant response rating, Barnyardgrass: 0
[20]; [21]
  Plant response rating, Barnyardgrass: 0

## CC1(C)CC([S+]([O-])Cc2c(C(F)(F)F)nc3cnccn3c2=O)=NO1 (stereo not drawn) [Compound 54]
[1]; 125 g ai/ha
  Plant response rating, Barnyardgrass: 0
[1]; 500 g ai/ha
  Plant response rating, Barnyardgrass: 0
[2]; 125 g ai/ha
  Plant response rating, Crabgrass, Large: 0
[2]; 500 g ai/ha
  Plant response rating, Crabgrass, Large: 0
[3]; 125 g ai/ha
  Plant response rating, Foxtail, Giant: 0
[3]; 500 g ai/ha
  Plant response rating, Foxtail, Giant: 0
[4]; 125 g ai/ha
  Plant response rating, Morningglory: 0
[4]; 500 g ai/ha
  Plant response rating, Morningglory: 0
[5]; 125 g ai/ha
  Plant response rating, Pigweed: 0
[5]; 500 g ai/ha
  Plant response rating, Pigweed: 0
[6]; 125 g ai/ha
  Plant response rating, Velvetleaf: 0
[6]; 500 g ai/ha
  Plant response rating, Velvetleaf: 0
[7]; 125 g ai/ha
  Plant response rating, Wheat: 0
[7]; 500 g ai/ha
  Plant response rating, Wheat: 0
[8]; 125 g ai/ha
  Plant response rating, Corn: 0
[8]; 500 g ai/ha
  Plant response rating, Corn: 0
[9]; 125 g ai/ha
  Plant response rating, Barnyardgrass: 0
[9]; 500 g ai/ha
  Plant response rating, Barnyardgrass: 0
[10]; 125 g ai/ha
  Plant response rating, Crabgrass, Large: 0
[10]; 500 g ai/ha
  Plant response rating, Crabgrass, Large: 20
[11]; 125 g ai/ha
  Plant response rating, Foxtail, Giant: 0
[11]; 500 g ai/ha
  Plant response rating, Foxtail, Giant: 50
[12]; 125 g ai/ha
  Plant response rating, Morningglory: 0
[12]; 500 g ai/ha
  Plant response rating, Morningglory: 10
[13]; 125 g ai/ha
  Plant response rating, Pigweed: 0
[13]; 500 g ai/ha
  Plant response rating, Pigweed: 0
[14]; 125 g ai/ha
  Plant response rating, Velvetleaf: 0
[14]; 500 g ai/ha
  Plant response rating, Velvetleaf: 0
[15]; 125 g ai/ha
  Plant response rating, Wheat: 0
[15]; 500 g ai/ha
  Plant response rating, Wheat: 0
[16]; 125 g ai/ha
  Plant response rating, Corn: 0
[16]; 500 g ai/ha
  Plant response rating, Corn: 0
[17]; 62 g ai/ha
  Plant response rating, Rice: 0
[17]; 250 g ai/ha
  Plant response rating, Rice: 0
[18]; 62 g ai/ha
  Plant response rating, Sedge, Umbrella: 0
[18]; 250 g ai/ha
  Plant response rating, Sedge, Umbrella: 0
[19]; 62 g ai/ha
  Plant response rating, Ducksalad: 0
[19]; 250 g ai/ha
  Plant response rating, Ducksalad: 0
[20]; 62 g ai/ha, scale 0 to 100
  Plant response rating, Barnyardgrass: 0
[20]; [21]
  Plant response rating, Barnyardgrass: 0
